Results published in patent US20030190364A1, “Biological affinity based delivery systems” (priority 2002, published 2003).
Read-outs that look alike come from different tables or passages of the source. Where no end group is shown, it is not given here. [ ]: non-standard residue; d: D form. The star is where a group is joined. FITC = O=C1OC2(c3ccc(O)cc3Oc3cc(O)ccc32)c2ccc(NC(=S)*)cc21; Dansyl = CN(C)c1cccc2c(S(=O)(=O)*)cccc12; βAla = NCCC(=O)O

Assays:
[1] = Relative affinity to heparin of synthesized peptides (Table 2); type: binding; conditions: corresponds to the bold-faced amino acids of the sequence
[2] = Heparin affinity column, NaCl concentration required for elution; type: binding; conditions: 50 mM sodium phosphate pH 7.5, gradient 0 to 2 M NaCl over 20 column volumes
Method: For purposes of the present invention, conditions for determining the affinity of the PB polypeptides (and/or the therapeutic agent) for heparin are as follows: The polypeptide is solubilized in 50 mM sodium phosphate buffer, pH 7.5 to a final concentration of 0.5 mg/ml. 1 mg of the polypeptide is loaded onto an Amersham Biosciences HiPrep 16/10 Heparin FF column (or suitable equivalent) at a flow rate of 5 ml/min at 25° C. After loading the polypeptide, a salt gradient is introduced to the column by increasing the sodium chloride content of the buffer from 0 to 2 M NaCl over 20 column volumes. The recorded NaCl concentration required for elution is determined by correlating the maximum absorbance value at 280 and/or 215 nm for each spectrum to the value of the gradient at that time point.
FIG. 4 is a chart depicting the relative heparin affinity of various heparin-binding peptides. Each peptide was solubilized in 50 mM sodium phosphate buffer, pH 7.5 to a final concentration of 0.5 mg/ml. Then, 1 mg of each peptide was loaded onto an Amersham Biosciences HiPrep 16/10 Heparin FF column at a flow rate of 5 ml/min. After loading the peptide, a salt gradient was introduced to the column by increasing the sodium chloride content of the buffer from 0 to 2 M NaCl over 20 column volumes. The recorded NaCl concentration required for elution was determined by correlating the maximum absorbance value at 280 and/or 215 nm for each spectrum to the value of the gradient at that time point.

[3] = cited from earlier work
[4] = Dissociation constant (KD) of peptides from heparin, literature values; type: binding; conditions: PBD3 versus PBD2
[5] = references [1], [2], read-out: Affinity to Heparin (KD)

| Substance | NaCl Elution Conc. [2] [mM] | also measured |
| --- | --- | --- |
| AAFAKLAARLYRKAGC [HBD-low] |  | Relative Affinity to Heparin [1]: 14.3% |
| AKLNCRLYRKANKSSKL [PBD8] | 481.2 |  |
| Dansyl-GYGRKKRRQRRR [Dansyl-TAT] | 727.6 |  |
| FITC-A(β)AAFAKLAARLYRKAGC ({FITC}-[βAla]AAFAKLAARLYRKAGC) [PBD2] | 354.8 | Kd [3, 5]: 370 nM |
| FITC-A(β)GGGGYGRKKRRQRRR ({FITC}-[βAla]GGGGYGRKKRRQRRR) [TAT, reference compound] |  | Relative Affinity to Heparin [1]: 170%; Kd ([3]; low molecular weight heparin and heparin to which only one molecule of TAT is bound (Rusnati, 1999), read-out: KD, dissociation constant for TAT from heparin): ~700 nM; Kd [3, 5]: 30 nM |
| FITC-A(β)KAFAALAARLYRKAGC ({FITC}-[βAla]KAFAALAARLYRKAGC) [PBD3, PBD3 control is the same peptide tested without heparin] | 313.0 | dissociation constant relative to that of PBD2 [4]: 1.8 times; Kd [3, 5]: 660 nM |
| FITC-A(β)KAFAKLAARLYRKAGC ({FITC}-[βAla]KAFAKLAARLYRKAGC) [FITC-PBD1] | 438.8 |  |
| FITC-A(β)YGRKKRRQRRR (AYGRKKRRQRRR; N-terminal FITC-beta-alanine) [FITC-TAT] | 703.6 |  |
| KAFAKLAARLYRKAGC [HBD-high] |  | Relative Affinity to Heparin [1]: 100% |
| KAFAKLAARLYRKAGC [PBD1-A] | 325.0 |  |
| WKA(β)FAKLNCRLYRKA (WK[βAla]FAKLNCRLYRKA) [PBD7] | 422.6 |  |
| dansyl-GKAFAKLAARLYRKAGC (Dansyl-GKAFAKLAARLYRKAGC) [PBD1] | 685.9 |  |
